# Measurements published in PMC11458958 (iScience, 2024).
# Residues, ends and D or L forms follow the SMILES beside them. *: point of attachment. Cbz = O=C(OCc1ccccc1)*
# What was measured:
# [1] = system: cathepsin L; experiment: Cathepsin activity in heart homogenates; type: in vivo, C57BL/6J mice; details: 25 mg/kg
# [2] = system: cathepsins K, B, L and S; details: 25 mg/kg; cited from earlier work
# [3] = system: mice subjected to coronary occlusion and reperfusion; experiment: In vivo acute reperfusion injury: 45 min coronary occlusion, 24 h reperfusion; design: species or system C57BL/6J mice; details: 25 mg/kg i.p. 10 min before reperfusion
# [4] = system: cathepsins B and L; details: cited from earlier work
# [5] = system: TAC mice; experiment: Transverse aortic constriction
# [6] = system: mice with post-infarction remodeling; type: in vivo, C57BL/6J mice; details: 20 mg/kg daily oral
# [7] = 4 weeks after TAC, 10 mg/kg daily oral from 1 to 4 weeks after TAC (3w)
compound,measurement,setting,value
CCCN1CCN(c2ccc(C(=O)NC3(C(=O)NCC#N)CCCCC3)cc2)CC1 [balicatib],"cathepsin L activity in heart homogenates, reduced, compared to sham mice",[1],41.2 ± 7.3%
same,cathepsin inhibition at this dose,[2],"inhibits cathepsins K, B, L and S"
same,effect on infarct size,[3],failed to attenuate infarct size
COCCOCCOC(=O)N[C@@H](CC(C)C)C(=O)N[C@@H](Cc1ccccc1)C(=O)C(=O)NC1CC1 [SNJ-1945],cathepsin inhibition,[4],inhibit at least cathepsins B and L
CC(C)[C@H](NC(=O)OCc1ccccc1)C(=O)N[C@H](C=O)Cc1ccccc1 [MDL-28170] (Cbz-Val-Phe-aldehyde),cathepsin inhibition,[4],inhibit at least cathepsins B and L
CCOC(=O)[C@H](CCc1ccccc1)N[C@@H](C)C(=O)N1CCC[C@H]1C(=O)O [Enalapril],EF,[5]; [7],49.5 ± 1.6^$∗ %
same,FS,[5]; [7],20.8 ± 0.8^$∗ %
same,HW,[5]; [7],151.8 ± 4.9 mg
same,HW/TL,[5]; [7],8.68 ± 0.26^$∗ mg/mm
same,IVST,[5]; [7],0.97 ± 0.03^$∗ mm
same,LVEDD,[5]; [7],4.48 ± 0.05∗ mm
same,LVESD,[5]; [7],3.55 ± 0.05^$∗ mm
same,LVPWT,[5]; [7],0.78 ± 0.03^$ mm
same,EF reduction with respect to baseline,"[5]; 4 weeks after TAC, 10 mg/kg daily oral starting 1 week after TAC",16%
same,capillary density (CD31 staining),"[5]; starting 1 week after TAC surgery, 10 mg/kg daily oral",preserved capillary density
same,EF,[6]; 4 weeks of reperfusion,52.6 ± 2.2%
same,FS,[6]; 4 weeks of reperfusion,22.7 ± 1.3%
same,IVST,[6]; 4 weeks of reperfusion,0.79 ± 0.03 mm
same,LVEDD,[6]; 4 weeks of reperfusion,4.85 ± 0.19 mm
same,LVESD,[6]; 4 weeks of reperfusion,3.75 ± 0.12 mm
same,LVPWT,[6]; 4 weeks of reperfusion,0.67 ± 0.02 mm
same,reduction of scar size vs. control group,[6]; 28 days,24%
same,mortality rate,[6]; 28 days of reperfusion,20%
